{"source": "patent EP2529745A1", "about": "“VEGF-D/VEGFR mediated regulation of dendrites” (Universität Heidelberg, priority 2011, dated 2012)", "key": {"[1]": {"system": "VEGFD", "test": "qRT-PCR analysis of VEGFD expression in cultured hippocampal neurons", "format": "cell-based, mouse", "method": "RNA extraction and cDNA synthesis. Total RNA was isolated at DIV10 to DIV13 from hippocampal primary neuron cultures or isolated brain tissues with Rneasy Mini Kit (Qiagen, Hilden, Germany) including an optional Dnase I treatment at room temperature for 15 min according to manufacturer's instructions (Qiagen). 1.2 µg of extracted RNA was reverse transcribed into first strand cDNA using High Capacity cDNA Reverse Transcription kit (Applied Biosystems, Foster City, CA).\nReal time quantitative PCR. Quantitative reverse transcriptase PCR (qRT-PCR) was done on an ABI7300 thermal cycler using Universal qRT-PCR master mix with TaqMan Gene Expression Assays for the indicated genes (Applied Biosystems). The following TaqMan Gene Expression Assays were used in this study: Gusb (Mm00446953_m1), cFos (Mm00487425_m1), VEGFD (Mm00438965_m1), VEGFC (Mm01202432_m1), VEGF (Mm01281449_m1), VEGFR3 (Mm01292618_m1), beta-actin (Mm00607939_s1), beta-2 microglobulin (Mm00437762_m1), CBP (Mm01342435_m1), p38 MAPK alpha (Mm00442497_m1), p38 MAPK beta (Mm00440955_m1). Expression of target genes was normalized against the expression of Gusb as endogenous control gene. Data were derived from at least 5 independent experiments."}, "[2]": {"system": "cFos", "test": "qRT-PCR analysis of cFos expression in cultured hippocampal neurons"}, "[3]": {"system": "VEGFC", "test": "qRT-PCR analysis of VEGFC expression in cultured hippocampal neurons"}, "[4]": {"system": "hippocampal neurons", "test": "Morphometric analyses (total dendritic length, Sholl analysis, spines) of cultured hippocampal neurons", "format": "cell-based, C57BL/6 mice", "method": "Hippocampal cultures and transfection. Hippocampal neurons from newborn C57BL/6 mice were cultured as known in the art. Experiments were done after a culturing period of 10 to 14 days in vitro (DIV). DNA transfection was done on DIV8 using Lipofectamine 2000 (Invitrogen, San Diego, CA). For the studies on dendrite morphology, neurons were analyzed 4-5 days after transfection.\nMorphometric analyses. For 3D Sholl Analysis, total dendritic length and spine morphology were calculated using Object-Image freeware software with a specific set of macros (written by Dr. E. Ruthazer, McGill University, Quebec). Briefly, a z-Stack acquisition was imported, calibrated in Object-Image and manually traced. Total dendritic length was then computed. For Sholl analysis, the shell interval was set at 5 µm. All analyses were performed blind. In all in vitro experiments, for each condition, a minimum of 12 neurons from three independent preparations was analyzed. For the Golgi staining quantifications of 20 neurons for each condition from 4 different injected animals per viral construct were traced and analyzed. MEA recordings. […]\nImmunocytochemistry. […] For the morphometric analyses, fluorescence images were acquired using a confocal laser-scanning microscope TCS SP2 (Leica, Mannheim, Germany) equipped with an inverted fluorescence microscope DM IRE2 (Leica) and Leica confocal scan software. […]"}}, "data": [{"molecule": "C[C@]12N[C@H](Cc3ccccc31)c1ccccc12", "note": "[MK801]", "values": [{"measurement": "expression of VEGFD mRNA", "setting": "[1]; 10 µM MK801, 10 µM nifedipine or both, DIV5 to DIV10", "result": "significantly reduced the expression of VEGFD mRNA"}]}, {"molecule": "CN1CCc2cc3c(cc2[C@H]1[C@@H]1OC(=O)c2c1ccc1c2OCO1)OCO3", "note": "[Bicuculline]", "values": [{"measurement": "VEGFD mRNA levels", "setting": "[1]", "result": "did not alter VEGFC or VEGFD mRNA levels"}, {"measurement": "cFos mRNA", "setting": "[2]", "result": "robust induction of cFos mRNA"}, {"measurement": "VEGFC mRNA levels", "setting": "[3]", "result": "did not alter VEGFC or VEGFD mRNA levels"}]}, {"molecule": "C[S+]([O-])c1ccc(-c2nc(-c3ccncc3)c(-c3ccc(F)cc3)[nH]2)cc1", "note": "(stereo not drawn) [SB203580]", "values": [{"measurement": "effect on rVEGFD-induced rescue of dendrite length and complexity", "setting": "[4]; neurons expressing CaMBP4 (and CaMKIVK75E), treated 3 days with rVEGFD", "result": "severely compromised the ability of rVEGFD to rescue the impairment of dendrite length and complexity"}, {"measurement": "Sholl analysis", "setting": "[4]; neurons expressing hrGFP, CaMBP4 or CaMKIVK75E, treated with SB203580 without rVEGFD", "result": "no difference compared to the respective untreated controls"}]}]}
